SMILES strings stand for the structures.

The target of test [1] is EGFR (Balb/c mice) (UniProt P00533). To be noted: balb/c3t3.
Test [2] deals with EGFR (UniProt P00533).
For test [3], the target named is EGFR (Balb/c mice) (UniProt P00533). The following applies: balb/mk cells.
In test [4] the target is EGFR (human) (UniProt P00533). The following applies: a431.
EGFR (human), sequence (P00533 whole entry, looked up): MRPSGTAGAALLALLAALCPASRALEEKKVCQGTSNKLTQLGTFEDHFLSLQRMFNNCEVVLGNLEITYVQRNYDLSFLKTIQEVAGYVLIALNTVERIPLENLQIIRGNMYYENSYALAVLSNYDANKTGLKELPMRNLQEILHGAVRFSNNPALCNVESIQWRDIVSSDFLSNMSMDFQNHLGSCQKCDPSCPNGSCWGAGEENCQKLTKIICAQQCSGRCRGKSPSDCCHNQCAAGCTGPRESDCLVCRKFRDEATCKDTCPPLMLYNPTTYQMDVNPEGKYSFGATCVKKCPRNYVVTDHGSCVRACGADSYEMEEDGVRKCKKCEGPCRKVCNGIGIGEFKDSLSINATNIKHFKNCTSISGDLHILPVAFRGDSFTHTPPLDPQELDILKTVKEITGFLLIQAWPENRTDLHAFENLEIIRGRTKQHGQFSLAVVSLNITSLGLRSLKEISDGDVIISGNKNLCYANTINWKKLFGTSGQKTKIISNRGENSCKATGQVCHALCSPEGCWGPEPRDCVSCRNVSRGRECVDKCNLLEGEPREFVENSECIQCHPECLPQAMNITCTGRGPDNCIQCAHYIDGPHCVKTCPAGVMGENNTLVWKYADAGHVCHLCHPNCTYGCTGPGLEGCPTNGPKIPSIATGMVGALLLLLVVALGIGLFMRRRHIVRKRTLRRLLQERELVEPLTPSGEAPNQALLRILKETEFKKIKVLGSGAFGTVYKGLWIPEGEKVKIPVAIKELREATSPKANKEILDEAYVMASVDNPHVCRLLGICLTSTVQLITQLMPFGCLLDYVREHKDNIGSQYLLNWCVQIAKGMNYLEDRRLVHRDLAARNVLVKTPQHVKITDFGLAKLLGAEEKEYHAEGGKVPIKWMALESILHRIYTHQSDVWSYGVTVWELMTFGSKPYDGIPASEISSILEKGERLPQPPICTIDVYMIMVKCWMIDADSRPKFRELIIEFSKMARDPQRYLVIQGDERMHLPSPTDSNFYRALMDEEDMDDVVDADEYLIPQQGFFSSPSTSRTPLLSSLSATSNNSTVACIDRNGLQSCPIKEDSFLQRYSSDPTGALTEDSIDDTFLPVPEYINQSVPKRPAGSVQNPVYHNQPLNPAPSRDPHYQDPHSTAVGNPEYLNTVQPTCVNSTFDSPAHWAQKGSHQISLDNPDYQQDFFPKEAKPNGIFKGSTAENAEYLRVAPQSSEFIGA

EGFR, sequence (P00533 whole entry, looked up): as above

As for `OCCN(CCO)Cc1cc2c(Nc3cccc(Cl)c3)ncnc2[nH]1`, the half-maximal inhibitory concentration (IC50) (commonly the point on the concentration scale where inhibition reaches its midpoint) in test [1] lay within 0.001 to 0.1 µM; in test [2], 0.0005 to 1 µM; in test [3], 0.1 to 1 µM.
Taken in the same sequence, the figures for `COc1ccc(CNCc2cc3c(Nc4cccc(Cl)c4)ncnc3[nH]2)cc1` were 0.001 to 0.1 µM, 0.0005 to 1 µM and 0.1 to 1 µM.
For the compound `CON=Cc1cc2c(Nc3cccc(Cl)c3)ncnc2[nH]1`, the IC50 was 0.001 to 0.1 µM in test [1], 0.0005 to 1 µM in test [2] and 0.1 to 1 µM in test [3].
For `C[C@@H](Nc1ncnc2[nH]c(-c3cccc(NCc4ccccc4)c3)cc12)c1ccccc1`, in that order: 0.001 to 0.1 µM, 0.0005 to 1 µM and 0.1 to 1 µM.
For `Clc1cccc(Nc2ncnc3[nH]c(-c4ccc(NCc5ccccc5)cc4)cc23)c1`, in that order: 0.001 to 0.1 µM, 0.0005 to 1 µM and 0.1 to 1 µM.
For `Clc1cccc(Nc2ncnc3[nH]c(CN4CCOCC4)cc23)c1`, in that order: 0.001 to 0.1 µM, 0.0005 to 1 µM and 0.1 to 1 µM.
Turning to `CCS(=O)(=O)Nc1ccc(-c2cc3c(N[C@H](C)c4ccccc4)ncnc3[nH]2)cc1`, the IC50 in test [1] fell in the range of 0.001 to 0.1 µM; in test [2] it was 0.0005 to 1 µM; in test [3] it was 0.1 to 1 µM.
For `CCc1csc(-c2cc3c(Nc4cccc(Cl)c4)ncnc3[nH]2)n1`, in that order: 0.001 to 0.1 µM, 0.0005 to 1 µM and 0.1 to 1 µM.
Taken in the same sequence, the figures for `CCNC(=S)Nc1ccc(-c2cc3c(Nc4cccc(Cl)c4)ncnc3[nH]2)cc1` were 0.001 to 0.1 µM, 0.0005 to 1 µM and 0.1 to 1 µM.
Taken in the same sequence, the figures for `O=C(Nc1ccccc1)Nc1cccc(-c2cc3c(Nc4cccc(Cl)c4)ncnc3[nH]2)c1` were 0.001 to 0.1 µM, 0.0005 to 1 µM and 0.1 to 1 µM.
Regarding `CCS(=O)(=O)Nc1cccc(-c2cc3c(Nc4cccc(Cl)c4)ncnc3[nH]2)c1`, the figures for the half-maximal inhibitory concentration (IC50) in test [1], in test [2] and in test [3] were 0.001 to 0.1 µM, 0.0005 to 1 µM and 0.1 to 1 µM, respectively.
For `ON=Cc1cc2c(Nc3cccc(Cl)c3)ncnc2[nH]1`, in that order: 0.001 to 0.1 µM, 0.0005 to 1 µM and 0.1 to 1 µM.
As for `CN1CCN(C(=O)c2cc3c(Nc4cccc(Cl)c4)ncnc3[nH]2)CC1`, the concentration for half-maximal inhibition (IC50) is 0.001 to 0.1 µM in test [1], 0.0005 to 1 µM in test [2] and 0.1 to 1 µM in test [3]. The IC100 result in test [4] was “Between 0.001 to 1.000 uM”.
Consider `O=C(c1ccc(-c2cc3c(Nc4cccc(Cl)c4)ncnc3[nH]2)cc1)N1CCOCC1`, for which the IC50 in test [1] lay in the range of 0.001 to 0.1 µM; in test [2], 0.0005 to 1 µM; in test [3], 0.1 to 1 µM.

Source of the values: the Kinase Knowledgebase extract (Sharma et al. 2016).
